Test results taken from patent US10231980B2, “Cortexolone 17alpha-benzoate for use in the treatment of tumours” (COSMO TECHNOLOGIES LTD., priority 2014, dated 2019).
Where two headings read alike, the source gives them in different places.

Columns and labels:
[1] = system: caspases 8, 9, 3/7 in MiaPaca2 cells; assay: Caspase 8, 9 and 3/7 activity; assay type: cell-based
Method: To better analyze the phenomenon, the enzymatic activity of Caspase 8 (initiator caspase for Extrinsic Pathway) and Caspase 9 (initiator caspase for Intrinsic Pathway) and of Caspases 3 and 7 (effector caspases) were measured.
Gemcitabine (a known pancreatic cancer chemotherapeutic agent) and DMSO were used as positive and negative controls, respectively. There were three incubation time points: 8 hours, 24 hours, and 48 hours. After each time point, cells were lysed in multiplex buffer containing the caspase 3/7 substrate combined with either caspase 8 or caspase 9 reagents, which contain stable luciferase in proprietary buffers. The lysates were transferred to white opaque 96-well plates before measuring luminescence on a Tecan Safire instrument. Parallel plates treated identically were used to determine cell viability. All caspase activities were corrected for the number of viable cells.

[2] = system: PC3; assay: ATP-dependent cell viability assay (Cell Titer Glo), Example 12; details: for IC50: Homo sapiens
Description: (§1) Data shown in Table I were fitted through sigmoidal dose response curves and analyzed using Prizm statistical.

[3] = system: Panc1; assay: as above; details: human, 3 days
Description: as §1

[4] = system: LNCaP; assay: as above; details: for IC50: Homo sapiens, LNCaP
Description: as §1

[5] = system: MiaPaca2; assay: as above; details: human, 3 days
Description: as §1

[6] = system: MCF7; assay: In vitro proliferation / cytotoxic assay on breast cancer cells (Examples 14, 25); details: for effect on viability, in words: MCF7
Method: as §1
(§2) For the cytotoxic assay, cells were seeded in 96-well flat bottom culture plates in media containing charcoal stripped serum. After 24 hours, test compounds were added to the cells. DMSO was used as the vehicle negative control and RU486 as the positive control. After 72 hour incubation, cells were harvested and lysed to determine cell viability using the Cell Titer Glow assay.

[7] = system: 7 cancer cell lines; assay: Therapeutic index over a panel of cancer cell lines; assay type: cell-based; details: average over the cancer cell lines of Table VII
Method: The compound toxicity was determined as follow:
Therapeutic Index=Safety/Potency=IC50 stimulated PBMC/IC50 cancer cell

[8] = system: stimulated PBMC; assay: IC50 on stimulated (actively dividing) PBMC; assay type: cell-based, human; details: PBMC Stim; Table IV
[9] = system: HT29; assay: MTT colorimetric assay on epithelial intestinal cancer cells; assay type: cell-based; details: for IC50: Homo sapiens, HT-29, HT29
Method: The experiment was performed to test and define anticancer activity in vitro of Cortexolone 17α-benzoate and cortexolone 17α-valerate, 21-propionate on cell lines representatives of epithelial intestinal tumours, namely HT29. The experiment method consisted in: • 1. Monolayer HT-29 cells were plated in: 96-wells plates at the density of 2×10^4 cells/mL. The cells plated were kept at 37° C. in 5% CO2 and left to attach for 24 h. • 2. […] After 72 h of treatment, the MTT colorimetric assay was performed.

[10] = system: MDA-MB-231; assay: In vitro proliferation / cytotoxic assay on breast cancer cells (Examples 14, 25); assay type: cell-based; details: Homo sapiens; MDA-MB-231; at 100 μM; read-out: maximum inhibition of viability
Method: as §1, §2

With CCCCC(=O)O[C@]1(C(=O)CO)CC[C@H]2[C@@H]3CCC4=CC(=O)CC[C@]4(C)[C@H]3CC[C@@]21C [CB-03-05, cortexolone 17α-valerate] the “profile for caspase activation” value [1] was “does not show a good profile for caspase activation”, the IC50 ([2]; PC-3, 72 h, PC3, Tables I and II, titrated 3 uM to 200 uM, 3 days) was 170 µM and the IC50 ([2]; PC-3, read-out: In vitro proliferation IC50, PC3, Table IV) was 170 µM. The IC50 ([2]; PC-3, read-out: in vitro proliferation IC50, PC3, Table III) was 170 µM, the “Therapeutic Index = IC50 resting PBMC/IC50 cancer cell” value ([2]; human, 3 days) was 1 and the “Therapeutic Index = IC50 stimulated PBMC/IC50 cancer cell” value ([2]; human, 3 days) was 1. The “Therapeutic Index = IC50 resting PBMC/IC50 cancer cell” value [3] was 2, the “Therapeutic Index = IC50 stimulated PBMC/IC50 cancer cell” value [3] was 2 and the IC50 [4] was 32 µM. The IC50 ([4]; 72 h) was 32 µM, the IC50 ([4]; read-out: In vitro proliferation IC50) was 32 µM and the IC50 ([4]; read-out: in vitro proliferation IC50) was 32 µM. For the same compound, the “Therapeutic Index = IC50 resting PBMC/IC50 cancer cell” value ([4]; human, 3 days) was 4, the “Therapeutic Index = IC50 stimulated PBMC/IC50 cancer cell” value ([4]; human, 3 days) was 4 and the “Therapeutic Index = IC50 resting PBMC/IC50 cancer cell” value [5] was 2. The “Therapeutic Index = IC50 stimulated PBMC/IC50 cancer cell” value [5] was 2, the “effect on viability, in words” value [6] was “only active in MCF7” and the “Therapeutic Index = IC50 resting PBMC/IC50 cancer cell” value ([6]; human, 3 days) was 3. The “Therapeutic Index = IC50 stimulated PBMC/IC50 cancer cell” value ([6]; human, 3 days) was 3, the “Therapeutic Index = IC50 stimulated PBMC/IC50 cancer cell, AVERAGE” value [7] was 3 and the “Therapeutic Index = IC50 resting PBMC/IC50 cancer cell” value [8] was 1. For the same compound, the IC50 ([9]; Table III, read-out: in vitro proliferation IC50) was 35 µM, the IC50 ([9]; Table IV, read-out: In vitro proliferation IC50) was 35 µM and the “Therapeutic Index = IC50 resting PBMC/IC50 cancer cell” value ([9]; human, 72 h) was 4. The “Therapeutic Index = IC50 stimulated PBMC/IC50 cancer cell” value ([9]; human, 72 h) was 4.
In the case of CC#C[C@]1(O)CC[C@H]2[C@@H]3CCC4=CC(=O)CCC4=C3[C@@H](c3ccc(N(C)C)cc3)C[C@@]21C [RU486, Mifepristone, reference compound], the cytotoxicity at 100 µM [10] is reported as 25%, the “effect on viability, in words” value [6] is reported as “does not affect” and the IC50 ([6]; MCF7 (ER+PR+GR+/−), 72 hour, Table VI) is reported as “Not active”.
